Test results reported in PMC9127867, “Analysis of the β-Glucosidase Family Reveals Genes Involved in the Lignification of Stone Cells in Chinese White Pear (Pyrus bretschneideri Rehd.)” (Frontiers in Plant Science, 2022).

Molecular target: T1, GST-PbBGLU1 (Pyrus x bretschneideri, UniProt Z9UO32JHD5)
T1 construct: full-length CDS in pGEX4T-1, N-terminal GST tag kept, E. coli BL21(DE3)
T1 sequence (Z9UO32JHD5 522-1019 limits assumed): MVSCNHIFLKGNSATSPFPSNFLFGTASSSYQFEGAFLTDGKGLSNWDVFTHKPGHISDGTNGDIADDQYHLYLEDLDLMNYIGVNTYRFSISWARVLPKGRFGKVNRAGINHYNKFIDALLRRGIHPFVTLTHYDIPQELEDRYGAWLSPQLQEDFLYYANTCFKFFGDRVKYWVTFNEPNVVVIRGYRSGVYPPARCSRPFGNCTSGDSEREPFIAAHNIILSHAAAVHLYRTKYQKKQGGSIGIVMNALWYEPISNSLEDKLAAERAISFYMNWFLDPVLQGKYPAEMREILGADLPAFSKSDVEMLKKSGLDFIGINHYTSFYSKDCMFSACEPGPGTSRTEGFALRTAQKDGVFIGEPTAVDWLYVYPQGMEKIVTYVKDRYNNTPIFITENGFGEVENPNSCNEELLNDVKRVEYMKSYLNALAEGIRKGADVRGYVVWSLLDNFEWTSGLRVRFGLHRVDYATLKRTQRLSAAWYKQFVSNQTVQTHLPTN
Experiment: HPLC of product, double reciprocal plot
Format: biochemical
Conditions: 35 °C, PBS pH 7.2–7.4, 50 mM MgSO4, 200 mM KCl, 0.1% β-mercaptoethanol
From the text: HPLC of product, double reciprocal plot on GST-PbBGLU1

SMILES | Km
COc1cc(/C=C/CO)ccc1O[C@@H]1O[C@H](CO)[C@@H](O)[C@H](O)[C@H]1O [coniferin] | 103 ± 3.89 µM
COc1cc(/C=C/CO)cc(OC)c1O[C@@H]1O[C@H](CO)[C@@H](O)[C@H](O)[C@H]1O [syringin] | 101 ± 6.51 µM
